Laboratory results published in PMC5988755, “First characterization of a microsporidial triosephosphate isomerase and the biochemical mechanisms of its inactivation to propose a new druggable target” (Scientific Reports, 2018).

Assays:
[1] = molecular target: T1, EiTIM (triosephosphate isomerase of E. intestinalis) (Encephalitozoon intestinalis, UniProt E0SA87); assay: residual activity after incubation, alpha-GDH coupled assay (NADH, […] nm); type: biochemical; conditions: covalent (Cys derivatization suggested), 0.5 mg/mL enzyme, 2 h at 37 °C, drug 0-50 μM
T1 construct: gene Eint_110100; full length, synthetic codon-optimised gene (silent A479G) in pET-3aHisTEV, E. coli BL21(DE3)pLysS; N-terminal His-tag removed with TEV protease; homodimer
T1 sequence (E0SA87 1-242): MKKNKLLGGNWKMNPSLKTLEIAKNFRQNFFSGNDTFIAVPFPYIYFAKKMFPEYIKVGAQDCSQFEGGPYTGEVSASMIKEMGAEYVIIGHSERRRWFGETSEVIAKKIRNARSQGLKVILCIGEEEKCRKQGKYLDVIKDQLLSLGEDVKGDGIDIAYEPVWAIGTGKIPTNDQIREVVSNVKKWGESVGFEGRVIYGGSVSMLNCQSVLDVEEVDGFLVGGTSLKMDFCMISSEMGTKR

[2] = molecular target: T1, EiTIM (triosephosphate isomerase of E. intestinalis); assay: as above; type: biochemical; conditions: covalent; 0.5 mM compound, 2 h at 37 °C; residual activity relative to untreated control; 3 Cys derivatized per subunit
[3] = molecular target: T1, EiTIM (triosephosphate isomerase of E. intestinalis); assay: thermal denaturation by CD at […] nm of derivatized enzyme; type: binding; conditions: covalent; 0.5 mM compound, 2 h at 37 °C, excess removed; untreated control Tm 52.8 ± 1.5 °C
[4] = molecular target: T1, EiTIM (triosephosphate isomerase of E. intestinalis); assay: residual activity after incubation, alpha-GDH coupled assay (NADH, […] nm); type: biochemical; conditions: read-out: 50% inactivation
purified protein = substrate: O=C[C@H](O)COP(=O)(O)O; assay: purified protein; conditions: GAP to DHAP direction, 25 °C, 0.2 mM NADH, 0.9 U alpha-GDH, GAP 0.2-10 mM

For `COc1ccc2[nH]c([S+]([O-])Cc3ncc(C)c(OC)c3C)nc2c1` (centres unmarked) [omeprazole], the 50% inactivation ([1]; omeprazole pre-activated with acid (HCl, 3 h)) was “sulbutiamine was two- and three-fold more effective than rabeprazole and omeprazole, respectively”.

`CS(=O)(=O)SCCS(=O)(=O)O` [MTSES, sodium (2-sulfonatoethyl) methanethiosulfonate] was tested, and the “Activity (%)^*” value [2] was 2.4 ± 1.1% and the “Tm (°C)^*” value [3] was 48.6 ± 1.9 °C.

With `O=C(O)c1cc(SSc2ccc([N+](=O)[O-])c(C(=O)O)c2)ccc1[N+](=O)[O-]` [DTNB, 5,5′-dithiobis(2-nitrobenzoic acid)] the IC50 [4] was 25 µM.

In the case of `CC(=C(CCOC(=O)C(C)C)SSC(CCOC(=O)C(C)C)=C(C)N(C=O)Cc1cnc(C)nc1N)N(C=O)Cc1cnc(C)nc1N` (stereo in doubt) [sulbutiamine], the IC50 [4] is reported as 2.5 µM.

`CSS(C)(=O)=O` [MMTS] was tested, and the “Activity (%)^*” value [2] was 17.3 ± 5.5% and the “Tm (°C)^*” value [3] was 49.8 ± 2.1 °C.

`COCCCOc1ccnc(C[S+]([O-])c2nc3ccccc3[nH]2)c1C` (centres unmarked) [rabeprazole] was tested, and the 50% inactivation [1] was “sulbutiamine was two- and three-fold more effective than rabeprazole and omeprazole, respectively”.

B1: EiTIM (triosephosphate isomerase of E. intestinalis) (Encephalitozoon intestinalis ATCC 50506) (protein)
chain: MKKNKLLGGNWKMNPSLKTLEIAKNFRQNFFSGNDTFIAVPFPYIYFAKKMFPEYIKVGAQDCSQFEGGPYTGEVSASMIKEMGAEYVIIGHSERRRWFGETSEVIAKKIRNARSQGLKVILCIGEEEKCRKQGKYLDVIKDQLLSLGEDVKGDGIDIAYEPVWAIGTGKIPTNDQIREVVSNVKKWGESVGFEGRVIYGGSVSMLNCQSVLDVEEVDGFLVGGTSLKMDFCMISSEMGTKR
B1 gave a Km (purified protein) of 830 ± 200 µM, a kcat (purified protein) of 1680 s⁻¹ and a kcat/Km (purified protein) of 2e+06 M⁻¹ s⁻¹.
